Legend:
[1] = molecular target: Serine/threonine-protein kinase PLK1 (Homo sapiens, UniProt P53350); assay: Inhibition of Plk1 using 5-FAMRRRAGALMDASFEEQ- CONH2 as substrate after 75 mins by caliper method
Aurora kinase A = molecular target: T1, Aurora kinase A (Homo sapiens, UniProt O14965); assay: Inhibition of Aurora A kinase by caliper method
T1 sequence (O14965 whole entry): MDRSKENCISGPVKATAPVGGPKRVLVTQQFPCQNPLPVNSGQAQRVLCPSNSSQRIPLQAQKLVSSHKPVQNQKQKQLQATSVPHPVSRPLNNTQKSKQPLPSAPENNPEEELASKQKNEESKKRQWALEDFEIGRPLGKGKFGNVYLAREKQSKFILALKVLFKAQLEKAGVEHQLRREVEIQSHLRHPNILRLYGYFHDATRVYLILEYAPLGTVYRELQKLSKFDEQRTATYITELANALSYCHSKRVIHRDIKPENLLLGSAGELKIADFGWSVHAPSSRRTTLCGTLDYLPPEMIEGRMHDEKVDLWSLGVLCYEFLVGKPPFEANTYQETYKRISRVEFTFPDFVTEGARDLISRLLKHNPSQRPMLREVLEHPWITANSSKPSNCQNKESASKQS

[2] = molecular target: Cyclin-dependent kinase 2 (Homo sapiens, UniProt P24941); assay: Inhibition of CDK2 by caliper method
[3] = molecular target: MAP kinase-activated protein kinase 2 (Homo sapiens) (UniProt P49137); assay: Inhibition of MAPKAPK2 at 1 uM incubated for 30 mins prior to substrate addition study done at apparent ATP Km for enzyme
MAP kinase-activated protein kinase 2 (Homo sapiens), sequence (P49137 whole entry, looked up): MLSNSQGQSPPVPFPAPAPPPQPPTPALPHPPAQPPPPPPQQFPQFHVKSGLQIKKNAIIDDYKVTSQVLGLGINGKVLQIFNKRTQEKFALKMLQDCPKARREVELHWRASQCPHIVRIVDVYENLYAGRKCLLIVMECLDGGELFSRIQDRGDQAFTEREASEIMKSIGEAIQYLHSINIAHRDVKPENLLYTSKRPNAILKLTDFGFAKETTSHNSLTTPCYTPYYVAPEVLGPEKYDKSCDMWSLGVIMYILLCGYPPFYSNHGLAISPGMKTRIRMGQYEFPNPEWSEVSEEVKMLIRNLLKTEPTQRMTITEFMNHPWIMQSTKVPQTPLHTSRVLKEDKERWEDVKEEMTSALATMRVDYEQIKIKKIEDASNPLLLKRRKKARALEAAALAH

[4] = molecular target: Protein kinase C zeta type (Homo sapiens) (UniProt Q05513); assay: Inhibition of PKCzeta at 1 uM incubated for 30 mins prior to substrate addition study done at apparent ATP Km for enzyme
[5] = molecular target: Ribosomal protein S6 kinase alpha-1 (Homo sapiens) (UniProt Q15418); assay: Inhibition of RSK1 at 1 uM incubated for 30 mins prior to substrate addition study done at apparent ATP Km for enzyme
Ribosomal protein S6 kinase alpha-1 (Homo sapiens), sequence (Q15418 whole entry): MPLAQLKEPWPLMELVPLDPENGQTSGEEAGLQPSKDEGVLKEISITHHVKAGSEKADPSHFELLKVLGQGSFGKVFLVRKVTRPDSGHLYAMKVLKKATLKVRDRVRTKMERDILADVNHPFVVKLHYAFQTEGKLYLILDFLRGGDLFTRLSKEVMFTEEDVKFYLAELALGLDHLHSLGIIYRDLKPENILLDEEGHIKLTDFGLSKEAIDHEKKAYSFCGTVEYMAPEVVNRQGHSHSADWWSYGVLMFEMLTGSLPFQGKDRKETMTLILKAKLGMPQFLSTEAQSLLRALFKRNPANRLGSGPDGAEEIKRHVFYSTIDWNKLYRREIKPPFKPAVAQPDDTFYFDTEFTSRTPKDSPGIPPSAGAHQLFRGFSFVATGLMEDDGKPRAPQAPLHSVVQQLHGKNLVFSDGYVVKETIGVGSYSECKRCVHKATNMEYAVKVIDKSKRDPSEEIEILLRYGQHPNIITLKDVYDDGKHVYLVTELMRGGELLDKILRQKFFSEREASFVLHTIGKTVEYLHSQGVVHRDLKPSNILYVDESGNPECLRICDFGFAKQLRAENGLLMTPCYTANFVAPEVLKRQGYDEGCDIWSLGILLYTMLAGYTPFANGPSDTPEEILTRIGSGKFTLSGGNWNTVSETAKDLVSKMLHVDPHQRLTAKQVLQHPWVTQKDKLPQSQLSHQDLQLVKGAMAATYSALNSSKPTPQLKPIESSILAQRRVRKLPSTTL

[6] = molecular target: Serine/threonine-protein kinase D2 (Homo sapiens) (UniProt Q9BZL6); assay: Inhibition of PKD2 at 1 uM incubated for 30 mins prior to substrate addition study done at apparent ATP Km for enzyme
[7] = molecular target: Serine/threonine-protein kinase D2 (Homo sapiens, UniProt Q9BZL6); assay: Inhibition of PKD2 incubated for 30 mins prior to substrate addition study done at apparent ATP Km for enzyme
[8] = molecular target: Tyrosine-protein kinase ABL1 (Homo sapiens, UniProt P00519); assay: Inhibition of ABL at 1 uM
[9] = molecular target: T2, Tyrosine-protein kinase Fyn (Homo sapiens, UniProt P06241); assay: Inhibition of FYN at 1 uM incubated for 30 mins prior to substrate addition study done at apparent ATP Km for enzyme
Target sequence in this assay (P06241 2-537 limits assumed): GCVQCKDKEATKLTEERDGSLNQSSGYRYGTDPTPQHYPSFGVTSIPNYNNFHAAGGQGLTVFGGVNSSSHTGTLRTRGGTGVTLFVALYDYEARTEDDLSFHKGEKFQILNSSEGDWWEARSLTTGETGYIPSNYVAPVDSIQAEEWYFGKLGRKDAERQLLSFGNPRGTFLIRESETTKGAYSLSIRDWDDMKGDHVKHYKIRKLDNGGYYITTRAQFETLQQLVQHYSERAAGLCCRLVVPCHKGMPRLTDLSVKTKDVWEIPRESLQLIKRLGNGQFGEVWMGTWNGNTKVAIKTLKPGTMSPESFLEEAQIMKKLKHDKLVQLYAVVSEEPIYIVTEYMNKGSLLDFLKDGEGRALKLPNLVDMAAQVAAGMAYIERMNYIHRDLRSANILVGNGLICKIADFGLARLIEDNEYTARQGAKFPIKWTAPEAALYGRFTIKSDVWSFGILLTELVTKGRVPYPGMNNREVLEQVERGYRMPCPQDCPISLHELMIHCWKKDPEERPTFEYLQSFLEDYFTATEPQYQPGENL

[10] = molecular target: T2, Tyrosine-protein kinase Fyn; assay: Inhibition of FYN incubated for 30 mins prior to substrate addition study done at apparent ATP Km for enzyme
[11] = molecular target: Tyrosine-protein kinase Lyn (Homo sapiens, UniProt P07948); assay: Inhibition of LYN incubated for 30 mins prior to substrate addition study done at apparent ATP Km for enzyme
[12] = molecular target: Serine/threonine-protein kinase Chk2 (Homo sapiens, UniProt O96017); assay: Inhibition of CHK2 incubated for 30 mins prior to substrate addition study done at apparent ATP Km for enzyme
Serine/threonine-protein kinase Chk2, sequence (O96017 whole entry): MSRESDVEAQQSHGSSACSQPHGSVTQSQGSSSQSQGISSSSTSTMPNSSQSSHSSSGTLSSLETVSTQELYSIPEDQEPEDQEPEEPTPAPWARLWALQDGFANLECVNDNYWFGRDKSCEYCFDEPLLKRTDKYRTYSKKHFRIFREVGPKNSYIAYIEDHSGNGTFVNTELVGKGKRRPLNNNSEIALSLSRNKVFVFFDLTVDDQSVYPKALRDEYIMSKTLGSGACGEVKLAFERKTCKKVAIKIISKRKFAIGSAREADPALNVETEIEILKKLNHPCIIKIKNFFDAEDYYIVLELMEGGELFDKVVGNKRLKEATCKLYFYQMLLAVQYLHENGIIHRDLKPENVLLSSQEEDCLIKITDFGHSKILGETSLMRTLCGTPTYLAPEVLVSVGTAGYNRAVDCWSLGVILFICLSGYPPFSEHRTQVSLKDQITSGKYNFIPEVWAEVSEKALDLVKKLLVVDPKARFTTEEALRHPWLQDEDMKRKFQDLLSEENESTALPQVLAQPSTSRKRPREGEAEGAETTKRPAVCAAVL

[13] = molecular target: T3, Tyrosine-protein kinase Lck (Homo sapiens, UniProt P06239); assay: Inhibition of LCK at 1 uM incubated for 30 mins prior to substrate addition study done at apparent ATP Km for enzyme
[14] = molecular target: T3, Tyrosine-protein kinase Lck; assay: Inhibition of LCK incubated for 30 mins prior to substrate addition study done at apparent ATP Km for enzyme
Target sequence in this assay (P06239 whole entry): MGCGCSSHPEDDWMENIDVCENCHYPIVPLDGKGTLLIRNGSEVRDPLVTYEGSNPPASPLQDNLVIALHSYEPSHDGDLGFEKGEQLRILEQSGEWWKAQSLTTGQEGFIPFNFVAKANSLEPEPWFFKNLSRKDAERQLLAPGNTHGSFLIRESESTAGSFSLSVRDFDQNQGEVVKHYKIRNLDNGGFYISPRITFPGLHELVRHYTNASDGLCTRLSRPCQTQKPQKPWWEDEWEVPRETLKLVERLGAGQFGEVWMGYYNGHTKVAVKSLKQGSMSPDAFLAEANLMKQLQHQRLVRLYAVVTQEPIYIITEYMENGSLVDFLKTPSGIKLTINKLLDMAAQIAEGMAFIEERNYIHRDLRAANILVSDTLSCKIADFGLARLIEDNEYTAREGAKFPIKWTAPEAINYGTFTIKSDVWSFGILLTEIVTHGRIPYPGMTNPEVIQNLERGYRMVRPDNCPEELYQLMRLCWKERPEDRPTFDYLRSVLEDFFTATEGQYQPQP

[15] = molecular target: Glycogen synthase kinase-3 beta (Homo sapiens, UniProt P49841); assay: Inhibition of GSK3beta incubated for 30 mins prior to substrate addition study done at apparent ATP Km for enzyme
Glycogen synthase kinase-3 beta, sequence (P49841 whole entry): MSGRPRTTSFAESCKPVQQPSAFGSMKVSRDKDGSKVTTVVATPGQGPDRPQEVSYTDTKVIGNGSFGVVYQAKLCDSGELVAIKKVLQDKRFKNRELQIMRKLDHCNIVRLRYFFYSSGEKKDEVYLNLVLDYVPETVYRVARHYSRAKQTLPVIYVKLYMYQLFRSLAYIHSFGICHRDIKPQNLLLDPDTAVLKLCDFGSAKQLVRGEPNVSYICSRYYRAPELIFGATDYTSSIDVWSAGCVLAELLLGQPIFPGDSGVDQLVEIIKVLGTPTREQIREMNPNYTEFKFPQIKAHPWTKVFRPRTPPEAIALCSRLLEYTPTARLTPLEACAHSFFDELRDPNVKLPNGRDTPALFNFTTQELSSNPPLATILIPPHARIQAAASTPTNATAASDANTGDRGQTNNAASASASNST

[16] = molecular target: Mitogen-activated protein kinase 1 (Homo sapiens) (UniProt P28482); assay: Inhibition of Erk2 at 1 uM incubated for 30 mins prior to substrate addition study done at apparent ATP Km for enzyme
[17] = Inhibition of PKA at 1 uM incubated for 30 mins prior to substrate addition study done at apparent ATP Km for enzyme
[18] = molecular target: Insulin receptor (Homo sapiens) (UniProt P06213); assay: Inhibition of INSR at 1 uM incubated for 30 mins prior to substrate addition study done at apparent ATP Km for enzyme
[19] = molecular target: Mitogen-activated protein kinase 14 (Homo sapiens) (UniProt Q16539); assay: Inhibition of p38alpha at 1 uM incubated for 30 mins prior to substrate addition study done at apparent ATP Km for enzyme
Mitogen-activated protein kinase 14 (Homo sapiens), sequence (Q16539 whole entry): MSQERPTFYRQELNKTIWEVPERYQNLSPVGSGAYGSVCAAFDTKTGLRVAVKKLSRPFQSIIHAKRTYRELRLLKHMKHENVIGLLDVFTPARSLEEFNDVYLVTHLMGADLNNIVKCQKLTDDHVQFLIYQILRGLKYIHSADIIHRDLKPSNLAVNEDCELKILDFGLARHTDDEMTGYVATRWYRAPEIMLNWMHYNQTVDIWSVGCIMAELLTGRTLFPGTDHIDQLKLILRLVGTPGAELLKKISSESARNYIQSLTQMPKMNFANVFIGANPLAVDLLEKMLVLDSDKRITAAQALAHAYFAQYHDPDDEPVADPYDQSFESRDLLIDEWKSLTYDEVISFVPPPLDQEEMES

[20] = molecular target: RAC-alpha serine/threonine-protein kinase (Homo sapiens) (UniProt P31749); assay: Inhibition of AKT1 at 1 uM incubated for 30 mins prior to substrate addition study done at apparent ATP Km for enzyme
[21] = molecular target: Ribosomal protein S6 kinase alpha-5 (Homo sapiens) (UniProt O75582); assay: Inhibition of MSK1 at 1 uM incubated for 30 mins prior to substrate addition study done at apparent ATP Km for enzyme
U2OS = assay: Growth inhibition of human U2OS cells after 92 hrs by CellTiter-Blue assay; assay type: functional
MDA-MB-231 = assay: Growth inhibition of human MDA-MB-231 cells after 92 hrs by CellTiter-Blue assay; assay type: functional; conditions: MDA-MB-231, 92 h
HeLa = assay: Growth inhibition of human HeLa cells after 92 hrs by CellTiter-Blue assay; assay type: functional
MCF7 = assay: Growth inhibition of human MCF7 cells after 92 hrs by CellTiter-Blue assay; assay type: functional; conditions: MCF7, 92 h
[22] = Inhibition of CH1D at 1 uM incubated for 30 mins prior to substrate addition study done at apparent ATP Km for enzyme
[23] = molecular target: T4, Serine/threonine-protein kinase Nek2 (Homo sapiens, UniProt P51955)
T4 sequence (P51955 whole entry): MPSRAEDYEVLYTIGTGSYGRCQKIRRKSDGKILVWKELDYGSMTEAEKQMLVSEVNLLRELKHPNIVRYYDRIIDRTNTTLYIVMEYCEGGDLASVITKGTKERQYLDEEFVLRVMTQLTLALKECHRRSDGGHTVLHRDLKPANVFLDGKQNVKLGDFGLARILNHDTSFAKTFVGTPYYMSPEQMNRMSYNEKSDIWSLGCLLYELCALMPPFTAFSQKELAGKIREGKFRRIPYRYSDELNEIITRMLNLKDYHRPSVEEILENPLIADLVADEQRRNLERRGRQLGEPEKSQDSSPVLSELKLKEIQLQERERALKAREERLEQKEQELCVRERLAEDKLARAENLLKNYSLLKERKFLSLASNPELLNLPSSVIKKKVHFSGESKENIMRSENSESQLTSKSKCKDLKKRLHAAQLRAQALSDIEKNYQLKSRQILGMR

[24] = molecular target: Hepatocyte growth factor receptor (Homo sapiens, UniProt P08581); conditions: 1 uM
Hepatocyte growth factor receptor, sequence (P08581 whole entry): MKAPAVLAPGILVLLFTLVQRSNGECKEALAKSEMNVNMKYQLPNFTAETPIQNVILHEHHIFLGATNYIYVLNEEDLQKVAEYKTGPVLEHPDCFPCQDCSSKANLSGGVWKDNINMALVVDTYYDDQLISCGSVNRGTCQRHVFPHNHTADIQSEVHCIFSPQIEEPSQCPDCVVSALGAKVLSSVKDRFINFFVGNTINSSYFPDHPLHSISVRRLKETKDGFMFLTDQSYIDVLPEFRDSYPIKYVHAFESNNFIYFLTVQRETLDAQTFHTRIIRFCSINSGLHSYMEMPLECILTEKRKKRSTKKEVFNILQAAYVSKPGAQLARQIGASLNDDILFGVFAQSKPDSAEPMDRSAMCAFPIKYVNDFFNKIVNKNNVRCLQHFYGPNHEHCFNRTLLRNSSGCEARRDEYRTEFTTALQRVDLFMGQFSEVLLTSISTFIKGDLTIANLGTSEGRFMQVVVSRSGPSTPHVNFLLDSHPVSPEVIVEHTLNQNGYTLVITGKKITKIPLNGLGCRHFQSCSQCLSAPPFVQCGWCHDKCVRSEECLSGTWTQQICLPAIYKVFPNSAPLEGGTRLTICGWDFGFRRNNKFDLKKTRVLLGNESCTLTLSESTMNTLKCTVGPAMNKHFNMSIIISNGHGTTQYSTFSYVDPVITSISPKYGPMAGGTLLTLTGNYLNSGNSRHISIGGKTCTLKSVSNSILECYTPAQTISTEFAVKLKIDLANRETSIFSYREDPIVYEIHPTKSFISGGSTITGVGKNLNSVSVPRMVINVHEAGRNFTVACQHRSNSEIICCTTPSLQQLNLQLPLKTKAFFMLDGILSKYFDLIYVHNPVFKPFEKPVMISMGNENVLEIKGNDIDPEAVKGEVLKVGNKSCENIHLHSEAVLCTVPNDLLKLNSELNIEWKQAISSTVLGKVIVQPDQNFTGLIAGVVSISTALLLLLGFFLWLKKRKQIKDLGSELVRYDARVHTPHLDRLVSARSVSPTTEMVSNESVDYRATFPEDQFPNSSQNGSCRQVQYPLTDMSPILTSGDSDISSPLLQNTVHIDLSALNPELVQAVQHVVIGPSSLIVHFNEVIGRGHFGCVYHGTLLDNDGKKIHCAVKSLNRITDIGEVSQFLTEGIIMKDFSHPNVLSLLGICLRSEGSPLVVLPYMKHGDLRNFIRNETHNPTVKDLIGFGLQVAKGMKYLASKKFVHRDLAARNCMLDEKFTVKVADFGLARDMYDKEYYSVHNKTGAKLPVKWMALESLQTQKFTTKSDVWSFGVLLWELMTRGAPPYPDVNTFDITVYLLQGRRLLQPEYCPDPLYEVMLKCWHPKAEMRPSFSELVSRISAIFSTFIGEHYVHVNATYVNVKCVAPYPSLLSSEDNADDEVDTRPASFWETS

[25] = molecular target: Proto-oncogene tyrosine-protein kinase Src (Homo sapiens, UniProt P12931); conditions: 1 uM

SMILES: C[C@H](/C=C\C(F)(F)F)Oc1cc(-c2cc(-c3cc(CN(C)C)cs3)cnc2N)ccc1C(N)=O
- IC50 [1]: 5820 nM
- IC50 (Aurora kinase A): 4940 nM
- IC50 [2]: 4570 nM
- inhibition [3]: 6%
- inhibition [4]: 12%
- inhibition [5]: 29%
- inhibition [6]: 77%
- IC50 [7]: 330 nM
- IC50 [8]: 1110 nM
- inhibition [9]: 57%
- IC50 [10]: 750 nM
- IC50 [11]: 1360 nM
- IC50 [12]: 2000 nM
- inhibition [13]: 89%
- IC50 [14]: 110 nM
- IC50 [15]: 70 nM
- inhibition [16]: 11%
- inhibition [17]: 12%
- inhibition [18]: 0%
- inhibition [19]: 0%
- inhibition [20]: 3%
- inhibition [21]: 25%
- GI50 (U2OS): 1820 nM
- GI50 (MDA-MB-231): 4160 nM
- GI50 (HeLa): 590 nM
- GI50 (MCF7): 2170 nM
- inhibition [22]: 67%
- IC50 [23]: 22 nM
- inhibition [24]: 46%
- inhibition [25]: 51%
